Measured values published in patent US12428415B2, “Matriptase 2 inhibitors and uses thereof” (Disc Medicine, Inc., priority 2018, dated 2025).
Read-outs that look alike come from different tables or passages of the source.

Molecular target: T1, Human Recombinant Matriptase 2 (Homo sapiens, UniProt Q8IU80)
T1 construct: purchased Enzo Life Sciences (an in-house preparation was also used) ALX-201-752-1
T1 sequence (Q8IU80 1-811): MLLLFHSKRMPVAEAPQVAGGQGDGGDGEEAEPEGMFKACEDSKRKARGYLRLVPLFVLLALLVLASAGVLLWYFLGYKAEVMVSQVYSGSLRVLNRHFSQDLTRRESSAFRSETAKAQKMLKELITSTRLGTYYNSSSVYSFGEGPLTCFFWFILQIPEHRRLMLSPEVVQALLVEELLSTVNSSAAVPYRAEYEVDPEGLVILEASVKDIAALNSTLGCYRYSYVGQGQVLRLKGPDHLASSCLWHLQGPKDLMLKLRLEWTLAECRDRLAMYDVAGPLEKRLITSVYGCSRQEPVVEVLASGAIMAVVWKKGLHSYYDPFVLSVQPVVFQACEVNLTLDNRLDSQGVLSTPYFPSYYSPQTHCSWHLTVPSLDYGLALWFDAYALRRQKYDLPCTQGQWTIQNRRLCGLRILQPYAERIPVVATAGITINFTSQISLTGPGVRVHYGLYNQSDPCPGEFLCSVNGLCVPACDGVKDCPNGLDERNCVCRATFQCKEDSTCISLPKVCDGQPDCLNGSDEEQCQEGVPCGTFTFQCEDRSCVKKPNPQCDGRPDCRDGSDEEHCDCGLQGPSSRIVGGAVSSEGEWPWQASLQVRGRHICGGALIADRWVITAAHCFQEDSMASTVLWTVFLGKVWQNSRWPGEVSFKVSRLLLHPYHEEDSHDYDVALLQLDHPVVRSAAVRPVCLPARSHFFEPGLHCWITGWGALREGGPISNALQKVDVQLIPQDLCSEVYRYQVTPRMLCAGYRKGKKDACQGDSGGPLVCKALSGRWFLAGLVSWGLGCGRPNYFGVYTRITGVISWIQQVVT
Test: Matriptase 2 fluorescence based inhibition assay, Method B (50 mM TRIS pH 7.5, 150 mM NaCl, 0.01% gelatin)
Assay type: biochemical
Details: read-out: Mar-2 % inhibition at 1 uM
Method in brief: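 Fluorogenic substrate Boc-Gln-Ala-Arg-7-amido-4-methylcoumarin (100 μM) cleavage read at Ex 360/Em 480 nm 60 min after addition, following 30 min enzyme–compound preincubation at 25° C. Enzyme was 7 nM commercial or 15 nM in-house; DMSO 1%. IC50s fitted by non-linear sigmoidal regression.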

[1] = 1 uM compound, Assay Used = B (Method B)
[2] = compound at 1 uM, Assay Used: B

Row | Structure (SMILES) | inhibition at 1 µM [1] [%] | inhibition at 1 µM [2] [%]
1 | CC(C)COC(=O)NC(=N)c1ccc2cc(C(=O)NC3CCN(C)CC3)n(Cc3cccc4ccccc34)c2c1 [Compound I-783] | 0 to 25 | 
2 | CC(C)OC(=O)NC(=N)c1ccc2cc(C(=O)NC3CCN(C)CC3)n(Cc3cccc4ccccc34)c2c1 [Compound I-784] | 25 to 50 | 
3 | CC(C)OC(=O)NC(=N)c1ccc2cc(C(=O)O)n(Cc3cccc4ccccc34)c2c1 [Compound I-786] | 0 to 25 | 
4 | CC(C)(C)OC(=O)N[C@H]1CC[C@H](NC(=O)c2cc3ccc(C(=N)N)cc3n2Cc2cccc3ccccc23)CC1 [Compound I-787] | 0 to 25 | 
5 | N=C(N)c1ccc2cc(C(=O)N[C@H]3CC[C@H](N)CC3)n(Cc3ccc(C(=O)N4CCCC4)c4ccccc34)c2c1 [Compound I-790] | 25 to 50 | 
6 | CC(C)COC(=O)NC(=N)c1ccc2cc(C(=O)O)n(Cc3cccc4ccccc34)c2c1 [Compound I-791] | 0 to 25 | 
7 | N=C(N)c1ccc2cc(C(=O)N[C@H]3CC[C@H](N)CC3)n(Cc3cccc4c(Br)cccc34)c2c1 [Compound I-792] | 75 to 100 | 
8 | CC(C)Oc1ccc2c(Cn3c(C(=O)O)cc4ccc(C(=N)N)cc43)cccc2c1 [Compound I-793] | 50 to 75 | 
9 | N=C(N)c1ccc2cc(C(=O)N[C@H]3CC[C@H](N)CC3)n(Cc3ccc(Br)c4ccccc34)c2c1 [Compound I-794] | 75 to 100 | 
10 | COc1ccc2c(Cn3c(C(=O)N[C@H]4CC[C@H](N)CC4)cc4ccc(/C(N)=N\O)cc43)cccc2c1 [Compound I-795] | 0 to 25 | 
11 | N=C(N)c1ccc2cc(C(=O)N[C@H]3CC[C@H](N)CC3)n(Cc3cc(C(N)=O)cc4ccccc34)c2c1 [Compound I-796, N-((1r, 4r)-4-aminocyclohexyl)-6-carbamimidoyl-1-((3-carbamoylnaphthalen-1-yl)methyl)-1H-indole-2-carboxamide] | 50 to 75 | 
12 | COc1cccc2c(Cn3c(C(=O)N[C@H]4CC[C@H](N)CC4)cc4ccc(C(=N)N)cc43)cccc12 [Compound I-797] |  | 75 to 100
13 | CN(C)C(=O)c1ccc(Cn2c(C(=O)N[C@H]3CC[C@H](N)CC3)cc3ccc(C(=N)N)cc32)c2ccccc12 [Compound I-798] |  | 50 to 75
14 | COc1ccc2ccccc2c1Cn1c(C(=O)N[C@H]2CC[C@H](N)CC2)cc2ccc(C(=N)N)cc21 [Compound I-799] |  | 0 to 25
15 | N=C(N)c1ccc2cc(C(=O)N[C@H]3CC[C@H](N)CC3)n(Cc3cc(CO)cc4ccccc34)c2c1 [Compound I-800, N-((1r,4r)-4-aminocyclohexyl)-6-carbamimidoyl-1-((3-(hydroxymethyl)naphthalen-1-yl)methyl)-1H-indole-2-carboxamide] |  | 25 to 50
16 | CNCCCOc1ccc2c(Cn3c(C(=O)O)cc4ccc(C(=N)N)cc43)cccc2c1 [Compound I-801, 6-carbamimidoyl-1-((6-(3-(methylamino)propoxy)naphthalen-1-yl)methyl)-1H-indole-2-carboxylic Acid] |  | 50 to 75
17 | C[C@@H](c1cccc2ccccc12)n1c(C(=O)N[C@H]2CC[C@H](N)CC2)cc2ccc(/C(N)=N/O)cc21 [Compound I-802] |  | 0 to 25
18 | N=C(N)c1ccc2cc(-c3nnn[nH]3)n(Cc3cccc4ccccc34)c2c1 [Compound I-803, 1-(naphthalen-1-ylmethyl)-2-(1H-tetrazol-5-yl)-1H-indole-6-carboximidamide] |  | 75 to 100
19 | CN(C)CCCOc1ccc2c(Cn3c(C(=O)N[C@H]4CC[C@H](N)CC4)cc4ccc(C(=N)N)cc43)cccc2c1 [Compound I-804, N-((1r,4r)-4-aminocyclohexyl)-6-carbamimidoyl-1-((6-(3-(dimethylamino)propoxy)naphthalen-1-yl)methyl)-1H-indole-2-carboxamide] |  | 75 to 100
20 | C[C@@H](c1cccc2ccccc12)n1c(C(=O)N[C@H]2CC[C@H](N)CC2)cc2ccc(C(=N)N)cc21 [Compound I-805] |  | 0 to 25
21 | N=C(N)c1ccc2cc(C(=O)N[C@H]3CC[C@H](N)CC3)n(Cc3cc(C(=O)O)cc4ccccc34)c2c1 [Compound I-806] |  | 50 to 75

Continued, values first:

Row | inhibition at 1 µM [1] [%] | inhibition at 1 µM [2] [%] | Structure (SMILES)
22 |  | 50 to 75 | CN(C)CCCOc1ccc2c(Cn3c(C(=O)O)cc4ccc(C(=N)N)cc43)cccc2c1 [Compound I-808]
23 |  | 25 to 50 | N/C(=N\O)c1ccc2cc(C(=O)NC3CCNCC3)n(Cc3cccc4ccccc34)c2c1 [Compound I-809]
24 |  | 25 to 50 | N/C(=N\O)c1ccc2cc(C(=O)O[C@H]3CC[C@H](N)CC3)n(Cc3cccc4ccccc34)c2c1 [Compound I-810, (1r,4r)-4-aminocyclohexyl 6-((Z)—N′-hydroxycarbamimidoyl)-1-(naphthalen-1-ylmethyl)-1H-indole-2-carboxylate]
25 |  | 25 to 50 | N=C(N)c1ccc2cc(C(=O)OC3CCCCC3)n(Cc3cccc4ccccc34)c2c1 [Compound I-811]
26 |  | 75 to 100 | CCOC(=O)c1cc(Cn2c(C(=O)N[C@H]3CC[C@H](N)CC3)cc3ccc(C(=N)N)cc32)c2ccccc2c1 [Compound I-812]
27 |  | 50 to 75 | N=C(N)c1ccc2cc(C(=O)N[C@H]3CC[C@H](N)CC3)n(Cc3cccc4sc(CO)cc34)c2c1 [Compound I-813, N-((1r,4r)-4-aminocyclohexyl)-6-carbamimidoyl-1-((2-(hydroxymethyl)benzo[b]thiophen-4-yl)methyl)-1H-indole-2-carboxamide]
28 |  | 25 to 50 | N=C(N)c1ccc2cc(C(=O)N[C@H]3CC[C@H](N)CC3)n(Cc3cccc4c3CCCC4)c2c1 [Compound I-814]
29 |  | 50 to 75 | N=C(N)c1ccc2cc(C(=O)N[C@H]3CC[C@H](N)CC3)n(Cc3cccc4sc(C(=O)O)cc34)c2c1 [Compound I-815, 4-((2-(((1r,4r)-4-aminocyclohexyl)carbamoyl)-6-carbamimidoyl-1H-indol-1-yl)methyl) benzo[b]thiophene-2-carboxylic Acid]
30 |  | 75 to 100 | N=C(N)c1ccc2cc(C(=O)NC3CCNC[C@@H]3F)n(Cc3cccc4ccccc34)c2c1 (some centres unmarked) [Compound I-816]
31 |  | 0 to 25 | N=C(N)c1ccc2cc(C(=O)N[C@H]3CC[C@H](N)CC3)n(CCCc3cccc4ccccc34)c2c1 [Compound I-817]
32 |  | 50 to 75 | N=C(N)c1ccc2cc(C(=O)N[C@H]3CC[C@H](N)CC3)n(Cc3cccc4ccsc34)c2c1 [Compound I-818]
33 |  | 75 to 100 | N=C(N)c1ccc2cc(C(=O)N[C@H]3CC[C@H](N)CC3)n(Cc3cc(Br)cc4ccccc34)c2c1 [Compound I-819]
34 |  | 25 to 50 | Cc1cccc2sc(Cn3c(C(=O)N[C@H]4CC[C@H](N)CC4)cc4ccc(C(=N)N)cc43)cc12 [Compound I-820]
35 |  | 75 to 100 | N=C(N)c1ccc2cc(C(=O)O)n(Cc3cccc4cc(O)ccc34)c2c1 [Compound I-821]
36 |  | 50 to 75 | COC(=O)c1cc2c(Cn3c(C(=O)N[C@H]4CC[C@H](N)CC4)cc4ccc(C(=N)N)cc43)cccc2s1 [Compound I-822]
37 |  | 50 to 75 | N=C(N)c1ccc2cc(C(=O)N[C@H]3CC[C@H](N)CC3)n(Cc3cccc4sccc34)c2c1 [Compound I-823]
38 |  | 75 to 100 | N=C(N)c1ccc2cc(C(=O)N[C@H]3CC[C@H](N)CC3)n(Cc3ccc(CO)c4ccccc34)c2c1 [Compound I-824]
39 |  | 75 to 100 | COC(=O)c1ccc(Cn2c(C(=O)N[C@H]3CC[C@H](N)CC3)cc3ccc(C(=N)N)cc32)c2ccccc12 [Compound I-825]
40 |  | 25 to 50 | N=C(N)c1ccc2cc(C(=O)NCCc3c[nH]c4ccc(O)cc34)n(Cc3cc(Oc4ncccn4)cc4ccccc34)c2c1 [Compound I-826]
41 |  | 25 to 50 | N=C(NN)c1ccc2cc(C(=O)N[C@H]3CC[C@H](N)CC3)n(Cc3cccc4ccccc34)c2c1 [Compound I-827, N-((1r,4r)-4-aminocyclohexyl)-6-(hydrazineyl(imino)methyl)-1-(naphthalen-1-ylmethyl)-1H-indole-2-carboxamide]
